# Experimental data from ChEMBL document CHEMBL1201862, “PubChem BioAssay data set” (2004).
#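 Interpolation was linear, between the two tested concentrations surrounding the appropriate level; five concentrations were tested over 48 hours in 96-well plates. Here, GI50 denotes the concentration required for 50% inhibition of growth.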 The source made the active and inactive calls. No stated cut-off is given here; in the data, active = GI50 up to about 1.1 µM and inactive = higher.
# How the values were obtained:
# Experiment in all cases: DTP human tumour cell line panel, 48 h
# HL-60 = test system: HL-60
# HCT-15 = test system: HCT-15
# Malme-3M = test system: Malme-3M
# M19-MEL = test system: M19-MEL
# U-251 = test system: U-251
# SK-MEL-28 = test system: SK-MEL-28
# OVCAR-4 = test system: OVCAR-4
# SF-539 = test system: SF-539
# OVCAR-3 = test system: OVCAR-3
# NCI-H522 = test system: NCI-H522
# RXF 393 = test system: RXF 393
# HT-29 = test system: HT-29
# A549 = test system: A549
# HCT-116 = test system: HCT-116
# DMS-114 = test system: DMS-114
# K562 = test system: K562
# SK-MEL-5 = test system: SK-MEL-5
# SNB-19 = test system: SNB-19
# MOLT-4 = test system: MOLT-4
# LXFL 529 = test system: LXFL 529
# A498 = test system: A498
# XF498 = test system: XF498
# OVCAR-8 = test system: OVCAR-8
# SF-295 = test system: SF-295
# CAKI-1 = test system: CAKI-1
# KM-20L2 = test system: KM-20L2
# NCI-H23 = test system: NCI-H23
# SK-OV-3 = test system: SK-OV-3
# SF-268 = test system: SF-268
# DLD-1 = test system: DLD-1
# UACC-257 = test system: UACC-257
# DMS-273 = test system: DMS-273
# OVCAR-5 = test system: OVCAR-5
# M14 = test system: M14
# KM12 = test system: KM12
# IGROV-1 = test system: IGROV-1
# LOX IMVI = test system: LOX IMVI
# SNB-78 = test system: SNB-78
# EKVX = test system: EKVX
# HOP-62 = test system: HOP-62
# SW-620 = test system: SW-620
# TK-10 = test system: TK-10
# CCRF-CEM = test system: CCRF-CEM
# NCI-H460 = test system: NCI-H460
# NCI-H226 = test system: NCI-H226
# UACC-62 = test system: UACC-62
# HCC 2998 = test system: HCC 2998
# 786-0 = test system: 786-0
# SNB-75 = test system: SNB-75
# SN12C = test system: SN12C
# ACHN = test system: ACHN
# HOP-18 = test system: HOP-18
# COLO 205 = test system: COLO 205
# MCF7 = test system: MCF7
# UO-31 = test system: UO-31
# HOP-92 = test system: HOP-92
# RPMI-8226 = test system: RPMI-8226
# NCI/ADR-RES = test system: NCI/ADR-RES
# SK-MEL-2 = test system: SK-MEL-2
# SR = test system: SR
smiles,measurement,setting,value
CCOC(=O)c1nc2ccc(Cl)cc2c2c1CCO2,GI50,HL-60,18.2 µM (inactive)
same,GI50,HCT-15,99.1 µM
same,GI50,Malme-3M,> 100 µM (inactive)
same,GI50,M19-MEL,> 100 µM (inactive)
same,GI50,U-251,74.6 µM (inactive)
same,GI50,SK-MEL-28,> 100 µM (inactive)
same,GI50,OVCAR-4,70.1 µM (inactive)
same,GI50,SF-539,95.1 µM (inactive)
same,GI50,OVCAR-3,> 100 µM (inactive)
same,GI50,NCI-H522,34.7 µM (inactive)
same,GI50,RXF 393,41.5 µM (inactive)
same,GI50,HT-29,> 100 µM (inactive)
same,GI50,A549,> 100 µM (inactive)
same,GI50,HCT-116,57 µM (inactive)
same,GI50,DMS-114,64.3 µM (inactive)
same,GI50,K562,91.2 µM (inactive)
same,GI50,SK-MEL-5,55.6 µM (inactive)
same,GI50,SNB-19,> 100 µM (inactive)
same,GI50,MOLT-4,53.5 µM (inactive)
same,GI50,LXFL 529,51.4 µM (inactive)
same,GI50,A498,31 µM (inactive)
same,GI50,XF498,72.8 µM (inactive)
same,GI50,OVCAR-8,> 100 µM (inactive)
same,GI50,SF-295,> 100 µM (inactive)
same,GI50,CAKI-1,51.8 µM (inactive)
same,GI50,KM-20L2,> 100 µM (inactive)
same,GI50,NCI-H23,> 100 µM (inactive)
same,GI50,SK-OV-3,76 µM (inactive)
same,GI50,SF-268,90.8 µM (inactive)
same,GI50,DLD-1,> 100 µM (inactive)
same,GI50,UACC-257,> 100 µM (inactive)
same,GI50,DMS-273,> 100 µM (inactive)
same,GI50,OVCAR-5,> 100 µM (inactive)
same,GI50,M14,> 100 µM (inactive)
same,GI50,KM12,> 100 µM (inactive)
same,GI50,IGROV-1,58.2 µM (inactive)
same,GI50,LOX IMVI,59.6 µM (inactive)
same,GI50,SNB-78,> 100 µM (inactive)
same,GI50,EKVX,> 100 µM (inactive)
same,GI50,HOP-62,82.4 µM (inactive)
same,GI50,SW-620,> 100 µM (inactive)
same,GI50,TK-10,76.7 µM (inactive)
same,GI50,CCRF-CEM,79.4 µM (inactive)
same,GI50,NCI-H460,> 100 µM (inactive)
same,GI50,NCI-H226,> 100 µM (inactive)
same,GI50,UACC-62,87.7 µM (inactive)
same,GI50,HCC 2998,> 100 µM (inactive)
same,GI50,786-0,> 100 µM (inactive)
same,GI50,SNB-75,24 µM (inactive)
same,GI50,SN12C,82 µM (inactive)
same,GI50,ACHN,55 µM (inactive)
same,GI50,HOP-18,23.6 µM (inactive)
same,GI50,COLO 205,> 100 µM (inactive)
CCCNC(=O)C(C)C1CCC2(C)C=CC(=O)C(C)=C2C1O (configuration not stated),GI50,HL-60,> 100 µM (inactive)
same,GI50,MCF7,> 100 µM (inactive)
same,GI50,HCT-15,> 100 µM
same,GI50,M19-MEL,> 100 µM (inactive)
same,GI50,U-251,> 100 µM (inactive)
same,GI50,UO-31,> 100 µM (inactive)
same,GI50,SK-MEL-28,> 100 µM (inactive)
same,GI50,OVCAR-4,> 100 µM (inactive)
same,GI50,HOP-92,> 100 µM (inactive)
same,GI50,SF-539,> 100 µM (inactive)
same,GI50,OVCAR-3,> 100 µM (inactive)
same,GI50,NCI-H522,> 100 µM (inactive)
same,GI50,RXF 393,> 100 µM (inactive)
same,GI50,HT-29,> 100 µM (inactive)
same,GI50,A549,> 100 µM (inactive)
same,GI50,HCT-116,> 100 µM (inactive)
same,GI50,DMS-114,> 100 µM (inactive)
same,GI50,K562,> 100 µM (inactive)
same,GI50,SK-MEL-5,> 100 µM (inactive)
same,GI50,SNB-19,> 100 µM (inactive)
same,GI50,MOLT-4,> 100 µM (inactive)
same,GI50,A498,> 100 µM (inactive)
same,GI50,XF498,> 100 µM (inactive)
same,GI50,OVCAR-8,> 100 µM (inactive)
same,GI50,SF-295,> 100 µM (inactive)
same,GI50,CAKI-1,> 100 µM (inactive)
same,GI50,KM-20L2,> 100 µM (inactive)
same,GI50,NCI-H23,> 100 µM (inactive)
same,GI50,SK-OV-3,> 100 µM (inactive)
same,GI50,SF-268,> 100 µM (inactive)
same,GI50,DLD-1,> 100 µM (inactive)
same,GI50,UACC-257,> 100 µM (inactive)
same,GI50,DMS-273,> 100 µM (inactive)
same,GI50,OVCAR-5,> 100 µM (inactive)
same,GI50,RPMI-8226,> 100 µM (inactive)
same,GI50,KM12,> 100 µM (inactive)
same,GI50,IGROV-1,> 100 µM (inactive)
same,GI50,LOX IMVI,> 100 µM (inactive)
same,GI50,EKVX,> 100 µM (inactive)
same,GI50,HOP-62,> 100 µM (inactive)
same,GI50,SW-620,> 100 µM (inactive)
same,GI50,CCRF-CEM,> 100 µM (inactive)
same,GI50,NCI/ADR-RES,> 100 µM (inactive)
same,GI50,NCI-H460,> 100 µM (inactive)
same,GI50,NCI-H226,> 100 µM (inactive)
same,GI50,UACC-62,> 100 µM (inactive)
same,GI50,HCC 2998,> 100 µM (inactive)
same,GI50,SNB-75,> 100 µM (inactive)
same,GI50,SN12C,> 100 µM (inactive)
same,GI50,SK-MEL-2,> 100 µM (inactive)
same,GI50,HOP-18,> 100 µM (inactive)
same,GI50,COLO 205,> 100 µM (inactive)
CC1=NN(c2ccccc2)C(=O)C12[C@H](c1ccccc1)C2(C#N)C#N (some centres not stated),GI50,HL-60,2.55 µM (inactive)
same,GI50,HCT-15,2.49 µM
same,GI50,Malme-3M,4.68 µM (inactive)
same,GI50,M19-MEL,2.51 µM (inactive)
same,GI50,U-251,15.4 µM (inactive)
same,GI50,UO-31,14.7 µM (inactive)
same,GI50,SK-MEL-28,3.48 µM (inactive)
same,GI50,OVCAR-4,5.46 µM (inactive)
same,GI50,HOP-92,2.64 µM (inactive)
same,GI50,SF-539,14.6 µM (inactive)
same,GI50,OVCAR-3,7.03 µM (inactive)
same,GI50,NCI-H522,2.88 µM (inactive)
same,GI50,RXF 393,5.19 µM (inactive)
same,GI50,HT-29,4.59 µM (inactive)
same,GI50,A549,16.3 µM (inactive)
same,GI50,HCT-116,3.21 µM (inactive)
same,GI50,K562,1.85 µM (inactive)
same,GI50,SK-MEL-5,4.48 µM (inactive)
same,GI50,SNB-19,15.8 µM (inactive)
same,GI50,MOLT-4,0.679 µM (active)
same,GI50,LXFL 529,1.96 µM (inactive)
same,GI50,A498,16.9 µM (inactive)
same,GI50,XF498,3.4 µM (inactive)
same,GI50,OVCAR-8,2.84 µM (inactive)
same,GI50,SF-295,12.9 µM (inactive)
same,GI50,CAKI-1,6.41 µM (inactive)
same,GI50,SR,1.91 µM (inactive)
same,GI50,KM-20L2,11.8 µM (inactive)
same,GI50,NCI-H23,2.85 µM (inactive)
same,GI50,SK-OV-3,18.6 µM (inactive)
same,GI50,SF-268,7.26 µM (inactive)
same,GI50,DLD-1,2 µM (inactive)
same,GI50,UACC-257,5.96 µM (inactive)
same,GI50,DMS-273,2.67 µM (inactive)
same,GI50,OVCAR-5,11.5 µM (inactive)
same,GI50,M14,1.44 µM (inactive)
same,GI50,RPMI-8226,1.91 µM (inactive)
same,GI50,KM12,9.64 µM (inactive)
same,GI50,IGROV-1,14.2 µM (inactive)
same,GI50,LOX IMVI,1.78 µM (inactive)
same,GI50,SNB-78,13.8 µM (inactive)
same,GI50,EKVX,18.3 µM (inactive)
same,GI50,HOP-62,17.3 µM (inactive)
same,GI50,SW-620,1.87 µM (inactive)
same,GI50,TK-10,12.5 µM (inactive)
same,GI50,CCRF-CEM,0.457 µM (active)
same,GI50,NCI-H460,17.5 µM (inactive)
same,GI50,NCI-H226,12.8 µM (inactive)
same,GI50,UACC-62,3.44 µM (inactive)
same,GI50,HCC 2998,18.5 µM (inactive)
same,GI50,786-0,2.41 µM (inactive)
same,GI50,SNB-75,6.11 µM (inactive)
same,GI50,SN12C,3.95 µM (inactive)
same,GI50,ACHN,8.36 µM (inactive)
same,GI50,SK-MEL-2,6.43 µM (inactive)
same,GI50,HOP-18,7.48 µM (inactive)
same,GI50,COLO 205,2.29 µM (inactive)
